Laboratory results as given in ChEMBL document CHEMBL1133985, “Synthesis of diaminobutane derivatives as potent Ca(2+)-permeable AMPA receptor antagonists” (Bioorg Med Chem Lett, 2001).
pIC50: −log10 of the molar value.

Experiments:
[1] = target: Glutamate receptor ionotropic, AMPA (Rattus norvegicus, UniProt P19490+P19491+P19492+P19493)
Rattus norvegicus = organism: Rattus norvegicus; details: dose 3 mg/kg; route intravenous
Description: Change in systolic blood pressure before and after intravenous administration of 3 mg/kg dose in rats

[2] = Inhibitory activity against [Ca(2+)]-impermeable Ionotropic glutamate receptor AMPA was determined; details: concentration not given here
[3] = target: Glutamate receptor ionotropic, AMPA (Rattus norvegicus) (UniProt P19491+P19492+P19493+P19490); assay: Antagonistic activity against Ca++permeable Ionotropic glutamate receptor AMPA as concentration of compound that reduces the inward current induced by kainate by 50% in Xenopus oocytes; assay type: functional, cell-based; details: Oocyte; concentration not given here

| Compound | pIC50 [1] | Delta SBP (Rattus norvegicus) | inhibition [2] | inhibition [3] |
| --- | --- | --- | --- | --- |
| CC(C)NCCCCNCC1CCN(C(=O)Cc2cccc3ccccc23)CC1 | 6.14 | 10 mmHg | – | – |
| CC(C)CNCCCCNCC1CCN(C(=O)Cc2cccc3ccccc23)CC1 | 6.10 | 7 mmHg | – | – |
| O=C(Cc1cccc2ccccc12)N1CCC(CNCCCCNCC2CCCCC2)CC1 | 6.60 | 11 mmHg | 4.4% | – |
| O=C(Cc1cccc2ccccc12)N1CCC(CNCCCCNCC2CCOCC2)CC1 | – | -22 mmHg | – | 35% |
| CN(C)CCCCNCC1CCN(C(=O)Cc2cccc3ccccc23)CC1 | 6.28 | 12 mmHg | – | – |
| O=C(Cc1cccc2ccccc12)N1CCC(CNCCCCN2CCCCC2)CC1 | 6.41 | 4 mmHg | – | – |
| O=C(Cc1cccc2ccccc12)N1CCC(CNCCCCNCCN2CCCCC2)CC1 | – | 5 mmHg | – | – |
| O=C(Cc1cccc2ccccc12)N1CCC(CNCCCCNCCCO)CC1 | – | -6 mmHg | – | 44% |
| CCCNCCCCNCC1CCN(C(=O)Cc2cccc3ccccc23)CC1 | 6.13 | 9 mmHg | – | – |
| NCCCCNCC1CCN(C(=O)Cc2cccc3ccccc23)CC1 | – | -53 mmHg | – | 54% |
| O=C(Cc1cccc2ccccc12)N1CCC(CCCCCCNCC2CCCCC2)CC1 | – | -35 mmHg | – | 42% |
| O=C(Cc1cccc2ccccc12)N1CCC(CNCCCCCCC2CCCCC2)CC1 | – | -50 mmHg | – | 1% |
